Where two headings read alike, the source gives them in different places.
Legend:
Type in all cases: cell-based, guinea pig (male Hartley)
[1] = target: T1, muscarinic receptor (ileum) (Cavia porcellus, UniProt H0W1Z3); assay: Anticholinergic action in guinea-pig ileum (antagonism of ACh response, Schild method); conditions: ileum, Tyrode solution, 32° C., test compound 5 min. before ACh; for Kb: read-out: Anticholinergic activity (pA2) Ileum (converted)
T1 construct: from tissue; host or cells: guinea-pig ileal segments (male Hartley)
Description: (§1) 1. Anticholinergic action in guinea-pig ileum and atria Male Hartley guinea pigs were sacrificed by blowing on the head and bleeding.
(§2) Responses to acetyllchlloline (ACh) added cumulatively to the baths were isotonically recorded under a tension of 1 g. Dose-response curves of ACh were determined in the absence and presence of test compounds in various concentrations added to the baths 5 min. before ACh application.

[2] = target: T2, muscarinic receptor (atrium, cardiac) (Cavia porcellus, UniProt H0VRN8); assay: Anticholinergic action in guinea-pig atria (antagonism of ACh response, Schild method); conditions: for Kb: read-out: Anticholinergic activity (pA2) Atrium (converted)
T2 construct: from tissue; host or cells: guinea-pig isolated atria (male Hartley)
T2 sequence (H0VRN8 1-466): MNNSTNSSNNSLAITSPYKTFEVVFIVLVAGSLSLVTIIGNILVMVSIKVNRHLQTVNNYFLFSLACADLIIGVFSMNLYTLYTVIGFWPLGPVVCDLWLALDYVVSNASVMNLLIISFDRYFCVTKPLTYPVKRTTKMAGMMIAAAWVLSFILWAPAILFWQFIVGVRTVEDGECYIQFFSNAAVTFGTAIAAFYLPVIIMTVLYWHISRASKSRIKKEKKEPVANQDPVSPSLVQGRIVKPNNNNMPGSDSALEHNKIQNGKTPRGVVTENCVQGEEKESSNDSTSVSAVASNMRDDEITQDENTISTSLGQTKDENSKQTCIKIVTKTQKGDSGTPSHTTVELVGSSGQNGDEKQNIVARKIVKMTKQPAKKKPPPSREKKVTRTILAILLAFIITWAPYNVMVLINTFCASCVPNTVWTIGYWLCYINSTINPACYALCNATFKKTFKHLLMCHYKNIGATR
Description: as §1
The isolated atria were suspended under 0.5 g tension in organ baths containing Tyrode solution gassed with 95% O2 and 5% CO2 at 32° C.
Dose-response curves were obtained by cumulative addition of ACh and repeated in the presence of various concentrations of test compounds, allowing 10 min. equilibration time.
The affinity of test compounds were determined as described for ileum.

[3] = tested on: muscarinic receptor (ileum); assay: Anticholinergic action in guinea-pig ileum (antagonism of ACh response, Schild method); conditions: ileum versus heart
Description: as §1, §2

[4] = target: T3, muscarinic receptor (trachea) (Cavia porcellus, UniProt H0W1Z3); assay: Anticholinergic action in guinea-pig trachea (antagonism of ACh response, Schild or van Rossum method); conditions: Tyrode solution, 37° C., 10 minutes equilibration, read-out: Anticholinergic activity (pA2) Trachea (converted)
T3 construct: from tissue; host or cells: guinea-pig tracheal ring strips (male Hartley)
Description: 4. Anticholinergic action in guinea-pig trachea Male Hartley guinea-pigs were killed by blowing on the head and bleeding.
Ring strips of trachea were suspended in organ bath filled with Tyrode solution, kept at 37° C. and gassed with a mixture of 95% O2 and 5% CO2.
Responses to ACh were isometrically recorded under a tension of 1 g. Concentration-Response curves were obtained cumulative addition of ACh and repeated in the presence of various concentrations of test compounds, allowing 10 minutes equilibration time.

[5] = Table 8, isolated atria, Tyrode solution, 32° C., 10 min. equilibration

T1 sequence (H0W1Z3 1-590): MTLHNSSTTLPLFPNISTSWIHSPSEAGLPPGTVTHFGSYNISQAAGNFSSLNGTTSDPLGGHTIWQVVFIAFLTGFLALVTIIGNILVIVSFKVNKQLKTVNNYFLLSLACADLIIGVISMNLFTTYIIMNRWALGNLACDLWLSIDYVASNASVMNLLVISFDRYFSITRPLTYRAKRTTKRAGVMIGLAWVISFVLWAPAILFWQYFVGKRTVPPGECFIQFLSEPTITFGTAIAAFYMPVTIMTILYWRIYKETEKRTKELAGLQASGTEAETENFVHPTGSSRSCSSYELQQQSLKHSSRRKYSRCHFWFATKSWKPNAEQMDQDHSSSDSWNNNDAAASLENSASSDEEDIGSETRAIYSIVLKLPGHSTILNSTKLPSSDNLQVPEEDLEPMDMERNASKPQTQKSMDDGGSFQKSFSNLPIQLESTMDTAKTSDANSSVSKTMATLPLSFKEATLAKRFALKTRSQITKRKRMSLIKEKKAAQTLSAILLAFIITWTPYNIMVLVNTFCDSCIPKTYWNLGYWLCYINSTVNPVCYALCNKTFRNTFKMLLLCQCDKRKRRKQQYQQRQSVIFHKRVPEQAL
T3 sequence (H0W1Z3 1-590): as above

Compound	Kb [2, 5] [nM]	affinity for receptors in ileum as compared to receptors in heart [3] [times]	Kb ([2]; Table 9, atrium) [nM]	Kb [4] [nM]	further results
Cc1nccn1CCCC(C#N)(c1ccccc1)c1ccccc1 [Example 7]	6.17	–	–	–	Kb [1]: 1.12 nM
Cc1nccn1CCCCC(C#N)(c1ccccc1)c1ccccc1 [Example 8]	–	10	–	–	Anticholinergic activity (pA2) Ileum [1]: 8.17; Anticholinergic activity (pA2) Atrium [2, 5]: 7.08
Cc1nccn1CCC(C(N)=O)(c1ccccc1)c1ccccc1 [Example 11, 4-(2-Methyl-1-imidazolyl)-2,2-diphenylbutylamide]	–	10	–	–	–
CC(C)c1nccn1CCC(C(N)=O)(c1ccccc1)c1ccccc1 [Example 14, 4-(2-isopropyl-1-imidazolyl)-2,2-diphenylbutylamide]	18.6	10	–	–	Kb [1]: 0.676 nM
Cc1n(CCC(C(N)=O)(c2ccccc2)c2ccccc2)cc[n+]1Cc1ccc(F)c(F)c1 [Example 44]	–	–	28.8	5.25	–
Cc1n(CCC(C(N)=O)(c2ccccc2)c2ccccc2)cc[n+]1Cc1ccc(-c2ccccc2)cc1 [Example 50]	–	–	30.2	4.57	–
Cc1n(CCCCC(C(N)=O)(c2ccccc2)c2ccccc2)cc[n+]1Cc1ccccc1 [Example 51]	–	–	20	4.57	–
CCN(CC)CC#CCOC(=O)C(O)(c1ccccc1)C1CCCCC1 (stereo not shown) [Oxybutynin, reference compound]	4.07	–	–	–	–

From patent US5932607A, “Imidazole derivatives and process for preparing the same” (Kyorin Pharmaceutical Co., Ltd., priority 1993, dated 1999)
